Laboratory results reported in paper PMC6199744, “Development of Chemical Proteomics for the Folateome and Analysis of the Kinetoplastid Folateome” (ACS Infectious Diseases, 2018).
Values joined by “and” are separate entries in the source; they are usually repeats but may differ in a detail not shown here. Equal values may be shown once. Read-outs that look alike come from different tables or passages of the source.

System: L. major lysate proteins
Experiment: Multitargeted bead mixture chemoproteomics, single concentration competition, proteome-wide
Type: binding
Details: for fold change: vehicle control = 1

Compound: Nc1nc2[nH]cc(CCc3ccc(C(=O)N[C@@H](CCC(=O)O)C(=O)O)cc3)c2c(=O)[nH]1 [PTX, pemetrexed]
- fold change relative to vehicle control: 1.01 and 1.04 and 0.91
- fold change vs vehicle control: 1.03 and 1.04 and 1
- fold change vs vehicle control (protein CLI00016468.1 KIN[…] PROTEIN-11): 0.68
- fold change vs vehicle control (protein LINJ.03.0240 RIBOSOMAL PROTEIN L38, PUTATIVE): 1.03
- fold change vs vehicle control (protein LINJ.11.0780 40S RIBOSOMAL PROTEIN S21, PUTATIVE): 0.99
- fold change (protein LINJ.11.0960 40S RIBOSOMAL PROTEIN S5): 1.07
- fold change vs vehicle control (protein LINJ.13.0990 […] SUBUNIT 2, PUTATIVE): 1.06
- fold change vs vehicle control (protein LINJ.15.0330 RIBONUCLEOPROTEIN P18, MIT[…], PUTATIVE): 1.08
- fold change (protein LINJ.19.0090 FIBRILLARIN, PUTATIVE): 0.88
- fold change (protein LINJ.21.1790 40S RIBOSOMAL PROTEIN S11, PUTATIVE): 1.08
- fold change relative to vehicle control (protein LINJ.23.0860, 3-KETOACYL-COA THIOLASE, PUTATIVE): 1.16
- fold change relative to vehicle control (protein LINJ.24.2300, 60S RIBOSOMAL PROTEIN L12, PUTATIVE): 0.96
- fold change vs vehicle control (protein LINJ.25.2230 SUCCINYL-COA […] SUBUNIT, PUTATIVE): 0.97
- fold change vs vehicle control (protein LINJ.26.1630 40S RIBOSOMAL PROTEIN S33, PUTATIVE): 0.99
- fold change vs vehicle control (protein LINJ.28.1100 RIBOSOMAL PROTEIN S20, PUTATIVE): 0.99
- fold change relative to vehicle control (protein LINJ.28.1940, R[…] A, 51KDA SUBUNIT, PUTATIVE): 0.99
- fold change (protein LINJ.28.2280 DYNEIN LIGHT CHAIN LC6, FLAGELLAR OUTER ARM, PUTATIVE): 0.87
- fold change (protein LINJ.28.2870 PROTEIN PHOSPHATASE 4 CATALYTIC SUBUNIT, PUTATIVE): 0.97
- fold change relative to vehicle control (protein LINJ.31.1600, CYTOCHROME C OXIDASE VIII (COX VIII), PUTATIVE): 0.89
- fold change relative to vehicle control (protein LINJ.33.1730, CYCLOPHILIN 4, PUTATIVE): 1.47
- fold change vs vehicle control (protein LINJ.34.0670 […]-ATP-ASE SUBUNIT 11, PUTATIVE,19S […]): 0.91
- fold change vs vehicle control (protein LINJ.36.0780 PROTEIN KINASE, PUTATIVE,MITOGEN-ACTIVATED PROTEIN KINASE, PUTATIVE): 0.92
- fold change relative to vehicle control (protein LINJ.36.3960, BASIC TRANSCRIPTION FACTOR 3A, PUTATIVE): 1.33
- fold change relative to vehicle control (protein LINJ.36.4080, HY[…], CONSERVED): 0.93
- fold change (protein LINJ.36.4180 HS1VU COMPLEX P[…]-LIKE): 0.92
- fold change vs vehicle control (protein LINJ.[…] LONG-CHAIN-FATTY-ACID-COA LIGASE, PUTATIVE): 0.9
- fold change (protein LMJF.01.0570 TRICARBOXYLATE CARRIER, PUTATIVE): 0.96
- fold change relative to vehicle control (protein LMJF.03.0200, DELTA-1-PYRROLINE-5-CARBOXYLATE DEHYDROGENASE, PUTATIVE): 1.03
- fold change (protein LMJF.03.0230 LONG CHAIN FATTY ACYL COA SYNTHETASE, PUTATIVE): 0.99
- fold change (protein LMJF.03.0980 […] 2 ALPHA SUBUNIT, PUTATIVE): 0.97
- fold change vs vehicle control (protein LMJF.04.0630 HY[…], CONSERVED): 0.99
- fold change vs vehicle control (protein LMJF.04.1230 actin): 1
- fold change (protein LMJF.05.0100 PHOSPHOPROTEIN PHOSPHATASE, PUTATIVE): 0.71
- fold change (protein LMJF.05.0280 PROTEIN TYROSINE PHOSPHATASE, PUTATIVE): 0.88
- fold change (protein LMJF.05.0510 ATPASE ALPHA SUBUNIT): 1.05
- fold change (protein LMJF.05.1040 STOMATIN-LIKE PROTEIN): 0.94
- fold change (protein LMJF.06.0650 […], PUTATIVE): 0.89
- fold change vs vehicle control (protein LMJF.07.0700 TOPOISOMERASE-RELATED FUNCTION PROTEIN-LIKE PROTEIN): 0.73
- fold change (protein LMJF.07.1000 RNA BINDING PROTEIN-LIKE PROTEIN): 0.93
- fold change relative to vehicle control (protein LMJF.07.1140, PEPTIDE […] REDUCTASE-LIKE): 1.13
- fold change (protein LMJF.08.0510 RIBOSE-PHOSPHATE PYROPHOSPHOKINASE, PUTATIVE): 0.89
- fold change vs vehicle control (protein LMJF.08.0550 T[…]-LIKE PROTEIN): 0.98
- fold change relative to vehicle control (protein LMJF.08.1030, cathepsin L-like protease): 1.04
- fold change vs vehicle control (protein LMJF.08.1100 HY[…], CONSERVED): 0.92
- fold change vs vehicle control (protein LMJF.09.1010 HY[…], CONSERVED): 0.89
- fold change relative to vehicle control (protein LMJF.09.1120, MIT[…] BINDING PROTEIN 2,MRP2, GBP25): 1
- fold change vs vehicle control (protein LMJF.09.1260 HY[…], CONSERVED): 0.97
- fold change (protein LMJF.10.0210 NUCLEOLAR PROTEIN, PUTATIVE): 0.99
- fold change vs vehicle control (protein LMJF.10.0310 PROTEIN TRANSPORT PROTEIN SEC23, PUTATIVE): 1.04
- fold change (protein LMJF.11.0590 3-METHYLCROTONOYL-COA C[…] SUBUNIT, PUTATIVE): 0.95
- fold change relative to vehicle control (protein LMJF.11.0630, AMINOPEPTIDASE, PUTATIVE,METALLO-PEPTIDASE, CLAN MF, FAMILY M17): 1.06
- fold change vs vehicle control (protein LMJF.11.1050 PRETRA[…], ALPHA SUBUNIT, PUTATIVE,SEC61-LIKE (PRETRA[…]) PROTEIN, PUTATIVE): 0.96
- fold change (protein LMJF.11.1160 PROTEIN TRANSPORT PROTEIN SEC31, PUTATIVE): 0.76
- fold change (protein LMJF.12.0030 […]-1 SUBUNIT, PUTATIVE): 0.94
- fold change vs vehicle control (protein LMJF.12.0210 […] SUBUNITTCC1L8 3, PUTATIVE): 0.96
- fold change relative to vehicle control (protein LMJF.12.0530, GLUCOSE-6-PHOSPHATE ISOMERASE): 1.26
- fold change (protein LMJF.12.0630 ALANINE AMINOTRANSFERASE): 0.86
- fold change vs vehicle control (protein LMJF.13.1230 40S RIBOSOMAL PROTEIN S4, PUTATIVE): 1.13
- fold change vs vehicle control (protein LMJF.14.0310 […] 3 SUBUNIT, PUTATIVE): 1.03
- fold change (protein LMJF.14.0660 FATTY ACID ELONGASE, PUTATIVE): 0.92
- fold change (protein LMJF.14.0670 FATTY ACID ELONGASE, PUTATIVE): 0.87
- fold change vs vehicle control (protein LMJF.14.0680 FATTY ACID ELONGASE, PUTATIVE): 1.08
- fold change (protein LMJF.14.0990 ADP/ATP MIT[…]-LIKE PROTEIN): 1.14
- fold change vs vehicle control (protein LMJF.14.1160 ENOLASE): 1.01
- fold change (protein LMJF.14.1440 HY[…], CONSERVED (cytoskeleton associated protein, putative)): 0.74
